Laboratory results reported in patent US20120071458A1, “METHODS FOR TREATING OBESITY” (priority 2006, published 2012).
Like-named read-outs stand apart in the source and are kept apart here.

Assays:
[1] = cited from earlier work
[2] = AEGR-733/ezetimibe combination therapy patient study: percentage change in body mass; format: in vivo, human
From the text: The primary parameter of efficacy in this study is the percentage change in body mass after 12 weeks of therapy.
Approximately 85 subjects were randomized into one of three treatment arms with equal probability. […] Enrolled patients had initial BMIs of both greater than and less than 30 kg/m^2. Patients were not instructed to implement lifestyle changes to induce weight loss. Patients were placed on a heart healthy low fat diet 4-5 weeks prior to start of dosing.
In treatment arm 1, subjects received two capsules: AEGR-733 (5 mg) plus an ezetimibe placebo. In effect, treatment arm 1 represents monotherapy with AEGR-733. In treatment arm 2, subjects received two capsules: an AEGR-733 placebo plus ezetimibe (10 mg). In effect treatment arm 2 represents monotherapy with ezetimibe. In treatment arm 3, subjects received two capsules: an AEGR-733 (5 mg) capsule plus an ezetimibe (10 mg) capsule. Treatment arm 3 patients, in effect, received a combination therapy.
After 4 weeks of treatment, subjects in arms 1 and 3 received a step-up in concentration of AEGR-733 from 5 mg to 7.5 mg for 4 weeks. Thereafter, subjects in arms 1 and 3 received a second step-up in concentration in AEGR-733 from 7.5 mg to 10 mg for 4 more additional weeks of treatment. Subjects in arm 2 continued to receive AEGR-733 matching placebo for the entire 12 weeks of treatment. Subjects randomized to ezetimibe 10 mg in arms 2 and 3 and ezetimibe placebo in arm 1 remained on these doses for the entire 12-week treatment period.
Throughout the study, changes in body weight of the subjects are measured as part of vital signs collection.
FIG. 3 depicts the same data only for those patients with a BMI of greater than 30 kg/m^2. FIG. 4 depicts the same data only for those patients with a BMI of less than or equal to 30 kg/m^2.

[3] = entire cohort, after 12 weeks of daily administration (FIG. 1), AEGR-733 5 then 7.5 then 10 mg, ezetimibe 10 mg
[4] = patients with initial BMI greater than 30 kg/m^2 (FIG. 3), after 12 weeks
[5] = patients with initial BMI less than 30 kg/m^2 (FIG. 4), after 12 weeks

| SMILES | adverse events ([1]; 80 mg/day) | adverse events ([1]; 160 mg/day) | percent change in body mass [2, 3] [%] | percent change in body mass [2, 4] [%] | percent change in body mass [2, 5] | adverse events ([1]; 25 mg/day) |
| --- | --- | --- | --- | --- | --- | --- |
| Cc1cc(C)c2c3ccccc3n(Cc3ccc(C(C(=O)NC(CO)c4ccccc4)C4CCCC4)cc3)c2n1 [implitapide, (2S)-2-cyclopentyl-2-[4-[2,4-dimethyl-9H-pyrido[2,3-b]indol-9-yl)methyl]phenyl]-N-[(1S)-2-hydroxy-1-phenylethyl]ethanamide] | found to cause gastrointestinal disorders, abnormalities in liver function and/or hepatic steatosis | found to cause gastrointestinal disorders, abnormalities in liver function and/or hepatic steatosis |  |  |  |  |
| O=C1[C@H](CC[C@H](O)c2ccc(F)cc2)[C@@H](c2ccc(O)cc2)N1c1ccc(F)cc1 [ezetimibe] |  |  | −0.2 | −1.0 | +0.4% |  |
| O=C(NC1CCN(CCCCC2(C(=O)NCC(F)(F)F)c3ccccc3-c3ccccc32)CC1)c1ccccc1-c1ccc(C(F)(F)F)cc1 [AEGR-733, N-(2,2,2-Trifluorethyl)-9-[4-[4-[[[4′-(trifluoromethyl)[1,1′biphenyl]-2-Y1]carbonyl]amino]-1-piperidinyl]butyl]9H-fluorene-9-carboxamide] |  |  | −1.0 | −0.4 | −1.4% | found to cause gastrointestinal disorders, abnormalities in liver function and/or hepatic steatosis |
